Like-named read-outs stand apart in the source and are kept apart here.
Tested on: HBsAg
Test: HBsAg assay (inhibition of HBsAg in HepG2.2.15 cells)
Assay type: cell-based, hepatitis B virus
Conditions: supernatant HBsAg by CLIA at day 6 after exposure of compounds
Experimental: Inhibition of HBsAg was determined in HepG2.2.15 cells. Cells were maintained in culture medium containing 10% fetal calf serum, […], Glutamine, penicillin/streptomycin. Cells were seeded in 96-well collagen-coated plate at a density of 30,000 cells/well. Serially diluted compounds were added to cells next day at the final DMSO concentration of 0.5%. Cells were incubated with compounds for 2-3 days, after which medium was removed. Fresh medium containing compounds was added to cells for additional 3-4 days. At day 6 after exposure of compounds, supernatant was collected, the HBsAg immunoassay (microplate-based chemiluminescence immunoassay kits, CLIA, Autobio Diagnosics Co., Zhengzhou, China, Catalog #CL0310-2) was used to determine the level of HBsAg according to manufactory instruction. Dose-response curves were generated and the EC50 value (effective concentrations that achieved 50% inhibitory effect) were determined using XLfit software. In addition, cells were seeded at a density of 5,000 cells/well for determination of cell viability in the presence and absence of compounds by using CellTiter-Glo reagent (Promega).

[1] = read-out: sAg EC50, HepG2.2.15 cells
[2] = Hepatitis B virus, HepG2.2.15, 144 h, read-out: sAg EC50, HepG2.2.15 cells

Row | Structure (SMILES) | EC50 [1] [nM] | EC50 [2] [nM]
1 | CCC1c2c(F)cc(Cl)cc2C(=O)N1c1ccnc(-c2ncccn2)n1 (single isomer, unassigned) [Example 8, 2-([2,2′-Bipyrimidin]-4-yl)-6-chloro-3-ethyl-4-fluoroisoindolin-1-one] | 10 | 
2 | COc1cc2c(cc1OC)C(c1ccccc1)N(c1nc(-c3ncccn3)ncc1F)C2=O (single isomer, unassigned) [Example 71, 2-(5-Fluoro-[2,2′-bipyrimidin]-4-yl)-5,6-dimethoxy-3-phenylisoindolin-1-one] | 1000 | 
3 | CCC1c2cc(OC)c(C)cc2C(=O)N1c1ccnc(-c2ncccn2)n1 (single isomer, unassigned) [Example 4, 2-([2,2′-Bipyrimidin]-4-yl)-3-ethyl-5-methoxy-6-methylisoindolin-1-one] | 8 | 
4 | CCC1c2cc(F)c(OC)cc2C(=O)N1c1nc(-c2ncccn2)ncc1OC (stereo not shown) [Example 25, 3-Ethyl-5-fluoro-6-methoxy-2-(5-methoxy-[2,2′-bipyrimidin]-4-yl)isoindolin-1-one] |  | 10000
5 | CCC1c2cc(OC)c(OC)cc2C(=O)N1c1cc(F)nc(-c2ncccn2)n1 (single isomer, unassigned) [Example 69, 3-Ethyl-2-(6-fluoro-[2,2′-bipyrimidin]-4-yl)-5,6-dimethoxyisoindolin-1-one] | 49000 | 
6 | COc1cc2c(cc1OC)C(=O)N(c1ccnc(-c3ncccn3)n1)CC2 [Example 63, 2-([2,2′-Bipyrimidin]-4-yl)-6,7-dimethoxy-3,4-dihydroisoquinolin-1(2H)-one] |  | 520
7 | CCC1c2cc(OC)c(OC)cc2C(=O)N1c1nc(-c2ncccn2)ncc1F (single isomer, unassigned) [Example 66, 3-Ethyl-2-(5-fluoro-[2,2′-bipyrimidin]-4-yl)-5,6-dimethoxyisoindolin-1-one] | 34 | 
8 | COc1ccc(C2c3cc(OC)c(OC)cc3C(=O)N2c2ccnc(-c3ncccn3)n2)cc1 (single isomer, unassigned) [Example 11, 2-([2,2′-Bipyrimidin]-4-yl)-5,6-dimethoxy-3-(4-methoxyphenyl)isoindolin-1-one] | 4000 | 
9 | CCOc1cc2c(cc1F)C(CC)N(c1nc(-c3ncccn3)ncc1F)C2=O (single isomer, unassigned) [Example 56, 6-Ethoxy-3-ethyl-5-fluoro-2-(5-fluoro-[2,2′-bipyrimidin]-4-yl)isoindolin-1-one] |  | 70
10 | CCC1c2cc(F)c(OC)cc2C(=O)N1c1nc(-c2ncccn2)ncc1F (single isomer, unassigned) [Example 74, 3-Ethyl-5-fluoro-2-(5-fluoro-[2,2′-bipyrimidin]-4-yl)-6-methoxyisoindolin-1-one] | 300 | 
11 | CCC1c2cc(OC)c(F)cc2C(=O)N1c1ccnc(-c2ncccn2)n1 (single isomer, unassigned) [Example 52, 2-([2,2′-Bipyrimidin]-4-yl)-3-ethyl-6-fluoro-5-methoxyisoindolin-1-one] | 400 | 
12 | CCC1c2cc(F)c(OC)cc2C(=O)N1c1nc(-c2ncccn2)ncc1F (single isomer, unassigned) [Example 55, 3-Ethyl-5-fluoro-2-(5-fluoro-2-pyrimidin-2-yl-pyrimidin-4-yl)-6-methoxy-isoindolin-1-one] | 50 | 
13 | O=C1c2c(F)cc(F)cc2CN1c1ccnc(-c2ncccn2)n1 [Example 60, 2-([2,2′-Bipyrimidin]-4-yl)-5,7-difluoroisoindolin-1-one] |  | 850
14 | COc1cc2c(cc1OC)C(Cc1ccccc1)N(c1ccnc(-c3ncccn3)n1)C2=O (single isomer, unassigned) [Example 15, 2-([2,2′-Bipyrimidin]-4-yl)-3-benzyl-5,6-dimethoxyisoindolin-1-one] | 40000 | 
15 | CCC1c2cc(F)c(OC)cc2C(=O)N1c1ccnc(-c2ncccn2)n1 (stereo not shown) [Example 48, 2-([2,2′-Bipyrimidin]-4-yl)-3-ethyl-5-fluoro-6-methoxyisoindolin-1-one] |  | 20
16 | COc1cc2c(cc1OC)C(Cc1ccccc1)N(c1ccnc(-c3ncccn3)n1)C2=O (single isomer, unassigned) [Example 14, 2-([2,2′-Bipyrimidin]-4-yl)-3-benzyl-5,6-dimethoxyisoindolin-1-one] | 100 | 
17 | COc1cc2c(cc1OC)C(c1ccccc1)N(c1ccnc(-c3ncccn3)n1)C2=O (single isomer, unassigned) [Example 43, 2-([2,2′-Bipyrimidin]-4-yl)-5,6-dimethoxy-3-phenylisoindolin-1-one] | 1 | 
18 | CCC1c2cc(Cl)cc(F)c2C(=O)N1c1ccnc(-c2ncccn2)n1 (single isomer, unassigned) [Example 20, 2-([2,2′-Bipyrimidin]-4-yl)-5-chloro-3-ethyl-7-fluoroisoindolin-1-one] | 45 | 
19 | CCC1c2cc(OC)c(OC)cc2C(=O)N1c1nc(-c2ncccn2)nc(C)c1C (stereo not shown) [Example 24, 2-(5,6-Dimethyl-[2,2′-bipyrimidin]-4-yl)-3-ethyl-5,6-dimethoxyisoindolin-1-one] |  | 10000
20 | COc1cc2c(cc1OC)C(c1ccccn1)N(c1ccnc(-c3ncccn3)n1)C2=O (single isomer, unassigned) [Example 23, 2-([2,2′-Bipyrimidin]-4-yl)-5,6-dimethoxy-3-(pyridin-2-yl)isoindolin-1-one] | 500 | 
21 | CCCC1c2cc(F)c(OC)cc2C(=O)N1c1nc(-c2ncccn2)ncc1F (single isomer, unassigned) [Example 58, 5-Fluoro-2-(5-fluoro-[2,2′-bipyrimidin]-4-yl)-6-methoxy-3-propylisoindolin-1-one] |  | 20
22 | CCC1c2cc(OC)c(OC)cc2C(=O)N1c1nc(-c2ncccn2)ncc1F (single isomer, unassigned) [Example 67, 3-Ethyl-2-(5-fluoro-[2,2′-bipyrimidin]-4-yl)-5,6-dimethoxyisoindolin-1-one] | 10000 | 

— patent publication US20230019280A1, “SUBSTITUTED ISOINDOLONYL 2,2'-BIP[…], ANALOGUES THEREOF, AND METHODS USING SAME” (priority 2019, published 2023)
